# Source: paper PMC11842024, “Reversible male contraception by targeted inhibition of serine/threonine kinase 33” (Science (New York, N.Y.), 2024)
# Where two headings read alike, the source gives them in different places.
# Legend:
# [1] = Pharmacokinetics (PK) of CDD-2807 in mice; type: in vivo; conditions: plasma; for AUC(0-inf) / AUC(0-t) / Cmax / Tmax / MRT inf / half-life: male, C57BL/6NJ, mouse; for MRT inf: read-out: MRT0-∞
# Experimental: Pharmacokinetics (PK) of CDD-2807 in mice. The pharmacokinetic studies (72) of CDD-2807 were performed at three doses via intraperitoneal (i.p.) injection and oral (p.o.) administration.
# CDD-2807 was dissolved in 10% Captisol containing 5% DMSO to prepare the solutions of 0.5 mg/mL, 2.5 mg/mL and 5.0 mg/mL. Twelve male mice (strain: C57BL/6NJ, 8−12 weeks) were divided equally and randomly into 4 groups (n = 3 for each dose). One group of mice were administered 5 mg/kg CDD-2807 (i.p., 10 µL/g of 0.5 mg/mL solution), the second group 25 mg/kg CDD-2807 (i.p., 10 µL/g of 2.5 mg/mL solution), the third group 5 mg/kg CDD-2807 (p.o., 10 µL/g of 0.5 mg/mL solution), and the fourth group 50 mg/kg CDD-2807 (p.o., 10 µL/g of 5.0 mg/mL solution). At 0, 5, 10, 15, 30 min, 1, 2, 4, 6, 8, 24 h post-dose, around 20 µL of blood was collected from the tail vein and anti-coagulated by heparin. The blood samples were centrifuged at 2000 g for 3 min at 4°C, and the plasma samples were transferred to tubes and stored at −80°C before analysis. All the samples were analyzed by the Thermo TSQ Quantis MS coupled with a Thermo Vanquish UHPLC (San Jose, CA). CDD-2807 was separated on a Luna C18 column (1 mm × 50 mm, 1.6 µm, Phenomenex, Torrance, CA), and eluted by a water-acetonitrile mobile phase system (both containing 0.1% formic acid, v/v) at the flow rate of 0.15 mL/min. CDD-2807 was monitored under the SRM mode coupled with a positive ESI source. The SRM ion pairs were 447→321 for CDD-2807. The ion spray voltage was set at 3500 V. High-purity nitrogen was used as the sheath gas (35 arbitrary unit), auxiliary gas (7 arbitrary unit), and high-purity argon was used as the collision gas. The temperatures of the ion transfer tube and the vaporizer were set at 300°C and 275°C, respectively. The concentration of CDD-2807 in plasma was quantified using individual calibration curves. The calibration curve was regressed with a weight of 1/x2 with high linearity (r2 >0.99). PK parameters, including half-time (t1/2), area under the plasma concentration– time curve from zero to infinity (AUC0–∞), clearance normalized by the bioavailability (CL/F), volume of distribution normalized by the bioavailability (Vd/F), and the mean residence time (MRT), were calculated by WinNonlin software (Certara, Princeton, NJ) by noncompartmental analysis. The plasma concentration–time curves were plotted in GraphPad Prism 9 (San Diego, […]
# RET = RET (Homo sapiens, UniProt P07949); assay: Z'-LYTE activity assay (ThermoFisher SelectScreen); type: biochemical; design: purchased SelectScreen Services (ThermoFisher); conditions: [ATP] = Kmapp
# RET, sequence (P07949 29-1114): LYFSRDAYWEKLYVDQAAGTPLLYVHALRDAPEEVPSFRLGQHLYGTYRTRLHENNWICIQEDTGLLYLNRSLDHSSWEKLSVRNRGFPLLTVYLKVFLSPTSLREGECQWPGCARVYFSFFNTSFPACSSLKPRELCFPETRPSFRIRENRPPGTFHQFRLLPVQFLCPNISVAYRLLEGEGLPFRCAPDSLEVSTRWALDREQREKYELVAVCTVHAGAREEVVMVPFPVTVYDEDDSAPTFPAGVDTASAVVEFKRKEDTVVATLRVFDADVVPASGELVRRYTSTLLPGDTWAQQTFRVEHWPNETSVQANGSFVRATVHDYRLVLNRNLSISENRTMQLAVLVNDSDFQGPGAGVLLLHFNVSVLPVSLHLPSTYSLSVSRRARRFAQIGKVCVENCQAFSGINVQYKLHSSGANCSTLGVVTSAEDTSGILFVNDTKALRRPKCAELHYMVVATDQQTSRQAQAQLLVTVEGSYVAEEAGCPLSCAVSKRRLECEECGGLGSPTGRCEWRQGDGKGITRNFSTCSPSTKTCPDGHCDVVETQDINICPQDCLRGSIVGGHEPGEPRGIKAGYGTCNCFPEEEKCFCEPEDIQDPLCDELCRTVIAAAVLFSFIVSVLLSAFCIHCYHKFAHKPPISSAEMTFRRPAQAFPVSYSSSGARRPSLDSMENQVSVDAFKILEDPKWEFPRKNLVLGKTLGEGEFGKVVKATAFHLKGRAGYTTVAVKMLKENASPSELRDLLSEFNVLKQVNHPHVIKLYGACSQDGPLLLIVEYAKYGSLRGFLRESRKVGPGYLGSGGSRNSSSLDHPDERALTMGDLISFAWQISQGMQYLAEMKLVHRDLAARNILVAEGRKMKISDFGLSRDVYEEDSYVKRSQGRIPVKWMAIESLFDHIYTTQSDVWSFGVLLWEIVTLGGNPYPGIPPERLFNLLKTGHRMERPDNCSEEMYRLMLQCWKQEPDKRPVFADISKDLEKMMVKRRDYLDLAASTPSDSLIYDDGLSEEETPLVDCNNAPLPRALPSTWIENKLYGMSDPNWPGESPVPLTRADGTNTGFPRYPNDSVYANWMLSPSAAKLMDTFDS
# From the text: (§1) In vitro biochemical assays. Several small molecule assays were outsourced to SelectScreen Services (ThermoFisher) for STK33 and for off-target kinases (data sets are available on demand).
# (§2) These assays are LanthaScreen (binding assay) and Z’-LYTE (activity assay). Dose-responses were done with at least 5 different concentrations in duplicates, and parameters were optimized by calculations described below and provided with standard errors. […]
# (§3) Calculation of Ki values for kinase inhibitors from Z’-LYTE inhibition data. The Morrison equation with [ATP] = Kmapp for competitive inhibition (GraphPad Prism 7, San Diego, CA) was used to get Ki values. Since Kd and Ki values are defined the same way, in other words, Kd = [E] [I] / [EI] = Ki, Kd and Ki values can be compared. […]
# CLK1 = CLK1 (Homo sapiens, UniProt P49759); assay: Z'-LYTE activity assay (ThermoFisher SelectScreen); type: biochemical; design: purchased SelectScreen Services (ThermoFisher); conditions: [ATP] = Kmapp
# CLK1, sequence (P49759 whole entry): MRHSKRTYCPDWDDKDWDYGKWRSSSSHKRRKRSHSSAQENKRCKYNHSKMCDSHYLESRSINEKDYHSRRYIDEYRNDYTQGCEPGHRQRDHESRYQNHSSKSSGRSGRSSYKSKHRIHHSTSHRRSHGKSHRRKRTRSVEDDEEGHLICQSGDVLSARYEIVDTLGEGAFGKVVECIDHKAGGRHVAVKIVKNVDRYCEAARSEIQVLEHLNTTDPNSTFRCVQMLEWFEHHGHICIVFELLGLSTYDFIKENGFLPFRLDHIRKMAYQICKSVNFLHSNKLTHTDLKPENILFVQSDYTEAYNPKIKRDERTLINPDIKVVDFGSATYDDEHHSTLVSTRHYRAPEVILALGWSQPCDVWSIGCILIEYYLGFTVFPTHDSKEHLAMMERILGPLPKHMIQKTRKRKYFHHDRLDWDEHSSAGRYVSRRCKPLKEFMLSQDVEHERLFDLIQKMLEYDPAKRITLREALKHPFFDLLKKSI
# From the text: as §1, §2, §3
# CLK2 = CLK2 (Homo sapiens, UniProt P49760); assay: Z'-LYTE activity assay (ThermoFisher SelectScreen); type: biochemical; design: purchased SelectScreen Services (ThermoFisher); conditions: [ATP] = Kmapp
# CLK2, sequence (P49760 whole entry): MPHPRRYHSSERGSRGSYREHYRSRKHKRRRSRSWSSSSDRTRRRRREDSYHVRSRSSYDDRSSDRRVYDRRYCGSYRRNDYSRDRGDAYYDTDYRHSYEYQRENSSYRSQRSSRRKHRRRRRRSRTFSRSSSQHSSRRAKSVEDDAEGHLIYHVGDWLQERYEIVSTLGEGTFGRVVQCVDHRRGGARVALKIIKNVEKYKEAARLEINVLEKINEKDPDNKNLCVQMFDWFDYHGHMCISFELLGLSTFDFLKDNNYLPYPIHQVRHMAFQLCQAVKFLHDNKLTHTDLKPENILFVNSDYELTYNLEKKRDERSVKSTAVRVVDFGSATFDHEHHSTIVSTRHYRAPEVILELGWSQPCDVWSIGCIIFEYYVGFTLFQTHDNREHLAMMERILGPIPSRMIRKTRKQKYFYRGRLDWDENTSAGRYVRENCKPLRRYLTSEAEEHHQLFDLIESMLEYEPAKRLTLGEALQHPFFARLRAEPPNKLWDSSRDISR
# From the text: as §1, §2, §3
# CLK4 = CLK4 (Homo sapiens, UniProt Q9HAZ1); assay: LanthaScreen binding assay (ThermoFisher SelectScreen); design: purchased SelectScreen Services (ThermoFisher)
# CLK4, sequence (Q9HAZ1 whole entry): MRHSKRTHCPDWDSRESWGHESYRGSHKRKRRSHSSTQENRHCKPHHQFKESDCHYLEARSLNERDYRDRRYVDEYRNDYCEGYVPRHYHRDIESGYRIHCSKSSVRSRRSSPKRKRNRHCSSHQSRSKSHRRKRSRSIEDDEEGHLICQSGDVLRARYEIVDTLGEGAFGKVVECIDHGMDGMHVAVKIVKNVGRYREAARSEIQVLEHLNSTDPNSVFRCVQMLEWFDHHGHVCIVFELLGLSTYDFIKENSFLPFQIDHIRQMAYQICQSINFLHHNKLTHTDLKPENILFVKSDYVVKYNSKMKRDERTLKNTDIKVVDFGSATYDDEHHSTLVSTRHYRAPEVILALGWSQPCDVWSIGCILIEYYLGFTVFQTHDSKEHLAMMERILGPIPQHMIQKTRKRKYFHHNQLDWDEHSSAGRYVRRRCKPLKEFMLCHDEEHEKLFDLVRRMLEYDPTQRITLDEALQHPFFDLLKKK
# From the text: as §1
# These assays are LanthaScreen (binding assay) and Z’-LYTE (activity assay). Dose-responses were done with at least 5 different concentrations in duplicates, and parameters were optimized by calculations described below and provided with standard errors.
# Calculation of Kd values for kinase inhibitors that bind to the ATP pocket of a kinase from LanthaScreen binding data. DynaFit (71) was used to fit complex equilibria where a tracer is displaced by a dilution series of a kinase inhibitor. This method relies on the concentration of inhibitor, as well as the concentration of kinase and tracer, and Kd of the tracer. The latter three parameters are tabulated by ThermoFisher for each kinase in the LanthaScreen assay panel. […]
# [2] = po, p.o. administration 5 mg/kg
# [3] = po, p.o. administration 50 mg/kg
smiles,measurement,setting,value
O=C(c1ccc2[nH]nc(C#Cc3ccccc3-c3ccccc3)c2c1)N1CC2(CCCNC2)C1 [CDD-2807],AUC(0-inf),"[1]; ip, i.p. injection 5 mg/kg",11.2 ± 1.11 µM·h
same,AUC(0-t),"[1]; ip, i.p. injection 5 mg/kg",9.46 ± 1.47 µM·h
same,Cmax,"[1]; ip, i.p. injection 5 mg/kg",2950 ± 640 nM
same,Tmax,"[1]; ip, i.p. injection 5 mg/kg",0.33 ± 0.14 h
same,MRT inf,"[1]; ip, i.p. injection 5 mg/kg",11.1 ± 4.43 h
same,half-life,"[1]; ip, i.p. injection 5 mg/kg, read-out: t1/2 (converted)",11.9 ± 4.38 h
same,AUC(0-inf),"[1]; ip, i.p. injection 25 mg/kg",67.7 ± 12.4 µM·h
same,AUC(0-t),"[1]; ip, i.p. injection 25 mg/kg",55.5 ± 5.42 µM·h
same,Cmax,"[1]; ip, i.p. injection 25 mg/kg",11900 ± 400 nM
same,Tmax,"[1]; ip, i.p. injection 25 mg/kg",0.33 ± 0.14 h
same,MRT inf,"[1]; ip, i.p. injection 25 mg/kg",12.2 ± 3.8 h
same,half-life,"[1]; ip, i.p. injection 25 mg/kg, read-out: t1/2 (converted)",11.3 ± 3.41 h
same,half-life,"[1]; ip, delivered intraperitoneally, read-out: plasma t1/2",> 11 h
same,AUC(0-inf),[1]; [2],1.85 ± 0.66 µM·h
same,AUC(0-t),[1]; [2],0.71 ± 0.07 µM·h
same,Cmax,[1]; [2],60 ± 20 nM
same,Tmax,[1]; [2],1.03 ± 0.96 h
same,MRT inf,[1]; [2],51.2 ± 28.9 h
same,half-life,"[1]; po, p.o. administration 5 mg/kg, read-out: t1/2 (converted)",36.1 ± 19.9 h
same,AUC(0-inf),[1]; [3],2.47 ± 0.34 µM·h
same,AUC(0-t),[1]; [3],1.88 ± 0.36 µM·h
same,Cmax,[1]; [3],180 ± 90 nM
same,Tmax,[1]; [3],2.67 ± 1.15 h
same,MRT inf,[1]; [3],16.5 ± 2.8 h
same,half-life,"[1]; po, p.o. administration 50 mg/kg, read-out: t1/2 (converted)",12.6 ± 1.5 h
same,CL/F,[1]; p.o. administration 5 mg/kg,2.91 ± 0.87 mg/h/µM/kg
same,Vd/F,[1]; p.o. administration 5 mg/kg,134.88 ± 26.14 mg/µM/kg
same,CL/F,[1]; p.o. administration 50 mg/kg,20.52 ± 3.02 mg/h/µM/kg
same,Vd/F,[1]; p.o. administration 50 mg/kg,376.76 ± 89.83 mg/µM/kg
same,Ki,RET,0.3 nM
same,Ki,CLK1,3.1 nM
same,Ki,CLK2,1.3 nM
same,Kd,CLK4,0.9 nM
